According to PubChem BioAssay AID330 (DTP/NCI, 2004):
Several values for one entry are separate records, joined by “and”; a condition that tells them apart may be missing. Identical values can stand only once. Toxic doses and inconclusive results are not listed. Rule for the calls: active = survival T/C of 150% or more; inactive = T/C below 125% in these data.

Tested on: P388 leukemia ip, CD2F1 mice, survival T/C
Experiment: NCI In Vivo Anticancer Drug Screen. Data for tumor model P388 Leukemia (intraperitoneal) in CD2F1 (CDF1) mice
Conditions: endpoint: median survival time, higher = longer survival
In short: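 Mice carrying the transplanted tumor received test compound or vehicle. Survival was recorded in each group, and the value is the treated-group measurement divided by that of the vehicle-treated control group.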

[1] = dose: 12.5 mg/kg/injection, schedule: Q01DX009 (ip), vehicle: saline with Tween-80
[2] = dose: 25.0 mg/kg/injection, schedule: Q01DX009 (ip), vehicle: saline with Tween-80
[3] = dose: 50.0 mg/kg/injection, schedule: Q01DX009 (ip), vehicle: saline with Tween-80
[4] = dose: 100.0 mg/kg/injection, schedule: Q01DX009 (ip), vehicle: saline with Tween-80
[5] = dose: 200.0 mg/kg/injection, schedule: Q01DX009 (ip), vehicle: saline with Tween-80
[6] = dose: 50.0 mg/kg/injection, schedule: Q01DX005 (ip), vehicle: Klucel (hydroxypropylcellulose) (HPC)
[7] = dose: 12.5 mg/kg/injection, schedule: Q01DX009 (ip), vehicle: distilled water + Tween-80
[8] = dose: 25.0 mg/kg/injection, schedule: Q01DX009 (ip), vehicle: distilled water + Tween-80
[9] = dose: 100.0 mg/kg/injection, schedule: Q01DX009 (ip), vehicle: distilled water + Tween-80
[10] = dose: 60.0 mg/kg/injection, schedule: Q01DX005 (ip), vehicle: saline with Tween-80
[11] = dose: 120.0 mg/kg/injection, schedule: Q01DX005 (ip), vehicle: saline with Tween-80
[12] = dose: 240.0 mg/kg/injection, schedule: Q01DX005 (ip), vehicle: saline with Tween-80

Measured: T/C

Cn1cnc([N+](=O)[O-])c1Sc1ncnc2nc[nH]c12
inactive: dose: 216.0 mg/kg/injection, schedule: Q01DX001 (ip), vehicle: saline with Tween-80 106 % of control and 122 % of control | dose: 360.0 mg/kg/injection, schedule: Q01DX001 (ip), vehicle: saline with Tween-80 118 % of control | dose: 600.0 mg/kg/injection, schedule: Q01DX001 (ip), vehicle: saline with Tween-80 108 % of control and 79 % of control

NC(=S)N/N=C/c1ccncn1
inactive: dose: 6.25 mg/kg/injection, schedule: Q01DX009 (ip), vehicle: Klucel (hydroxypropylcellulose) (HPC) 93 % of control | dose: 6.25 mg/kg/injection, schedule: Q04DX003 (ip), vehicle: Klucel (hydroxypropylcellulose) (HPC) 111 % of control | dose: 12.5 mg/kg/injection, schedule: Q01DX009 (ip), vehicle: Klucel (hydroxypropylcellulose) (HPC) 92 % of control | dose: 12.5 mg/kg/injection, schedule: Q04DX003 (ip), vehicle: Klucel (hydroxypropylcellulose) (HPC) 101 % of control | dose: 12.5 mg/kg/injection, schedule: Q04DX003 (ip), vehicle: saline with Tween-80 123 % of control | dose: 25.0 mg/kg/injection, schedule: Q01DX009 (ip), vehicle: Klucel (hydroxypropylcellulose) (HPC) 100 % of control | dose: 25.0 mg/kg/injection, schedule: Q04DX003 (ip), vehicle: Klucel (hydroxypropylcellulose) (HPC) 111 % of control | dose: 50.0 mg/kg/injection, schedule: Q04DX003 (ip), vehicle: Klucel (hydroxypropylcellulose) (HPC) 112 % of control

O=CNc1ncc([N+](=O)[O-])s1
inactive: [1] 95 % of control | [2] 90 % of control | [3] 100 % of control and 102 % of control

CCOC(=O)C1=C(C)NC(=O)NC1c1ccc(C)cc1 (configuration not stated)
inactive: dose: 100.0 mg/kg/injection, schedule: Q04DX003 (ip), vehicle: saline with Tween-80 100 % of control | dose: 200.0 mg/kg/injection, schedule: Q04DX003 (ip), vehicle: saline with Tween-80 95 % of control | dose: 400.0 mg/kg/injection, schedule: Q04DX003 (ip), vehicle: saline with Tween-80 100 % of control

CNC(=O)N(C)c1cc(N(C)C)nc(OC)n1
inactive: dose: 4.5 mg/kg/injection, schedule: Q01DX005 (ip), vehicle: saline + alcohol 100 % of control | dose: 9.0 mg/kg/injection, schedule: Q01DX005 (ip), vehicle: saline + alcohol 90 % of control | dose: 18.0 mg/kg/injection, schedule: Q01DX005 (ip), vehicle: saline + alcohol 98 % of control | dose: 36.0 mg/kg/injection, schedule: Q01DX005 (ip), vehicle: saline + alcohol 98 % of control | dose: 72.0 mg/kg/injection, schedule: Q01DX005 (ip), vehicle: saline + alcohol 101 % of control

O=C(O)c1ccc2c(c1)C(=O)c1c(O)ccc(O)c1C2=O
inactive: [3] 92 % of control | [4] 103 % of control | [5] 103 % of control

Cc1cc(C)n(-c2ccnc(-n3nc(C)cc3C)n2)n1
inactive: dose: 100.0 mg/kg/injection, schedule: Q04DX003 (ip), vehicle: saline 104 % of control | dose: 200.0 mg/kg/injection, schedule: Q04DX003 (ip), vehicle: saline 114 % of control | dose: 400.0 mg/kg/injection, schedule: Q04DX003 (ip), vehicle: saline 101 % of control

CCOC(=O)C1(CC)CC(OCC)OC1=O (configuration not stated)
inactive: [6] 100 % of control | dose: 100.0 mg/kg/injection, schedule: Q01DX005 (ip), vehicle: Klucel (hydroxypropylcellulose) (HPC) 93 % of control | dose: 200.0 mg/kg/injection, schedule: Q01DX005 (ip), vehicle: Klucel (hydroxypropylcellulose) (HPC) 97 % of control

c1ccc(C2=NNC(c3ccccn3)=C3CCCCCCC3=N2)nc1
inactive: dose: 5.3 mg/kg/injection, schedule: Q01DX009 (ip), vehicle: water 110 % of control | dose: 8.0 mg/kg/injection, schedule: Q01DX009 (ip), vehicle: water 112 % of control | dose: 12.0 mg/kg/injection, schedule: Q01DX009 (ip), vehicle: water 112 % of control | dose: 18.0 mg/kg/injection, schedule: Q01DX009 (ip), vehicle: water 110 % of control | dose: 25.0 mg/kg/injection, schedule: Q01DX009 (ip), vehicle: water 111 % of control | dose: 50.0 mg/kg/injection, schedule: Q01DX009 (ip), vehicle: water 117 % of control

C[N+]1=C(/C=C/Nc2cccc(N/C=C/C3=[N+](C)c4ccccc4C3(C)C)c2)C(C)(C)c2ccccc21
inactive: dose: 12.5 mg/kg/injection, schedule: Q01DX005 (ip), vehicle: Klucel (hydroxypropylcellulose) (HPC) 97 % of control | dose: 25.0 mg/kg/injection, schedule: Q01DX005 (ip), vehicle: Klucel (hydroxypropylcellulose) (HPC) 97 % of control | [6] 105 % of control

c1ccc2[s+]csc2c1
inactive: dose: 6.25 mg/kg/injection, schedule: Q01DX009 (ip), vehicle: distilled water + Tween-80 102 % of control | [7] 92 % of control | [8] 107 % of control | dose: 50.0 mg/kg/injection, schedule: Q01DX009 (ip), vehicle: distilled water + Tween-80 108 % of control | [9] 93 % of control

CSc1ncnc2c1cnn2C1OC(CO)C(O)C1O (configuration not stated)
inactive: dose: 6.25 mg/kg/injection, schedule: Q01DX009 (ip), vehicle: saline with Tween-80 104 % of control | [1] 98 % of control | [2] 116 % of control | [3] 100 % of control

O=C1c2cccc(NCCCNCCO)c2C(=O)c2cccc(NCCCNCCO)c21
inactive: dose: 12.5 mg/kg/injection, schedule: Q04DX002 (ip), vehicle: distilled water + Tween-80 110 % of control | dose: 25.0 mg/kg/injection, schedule: Q04DX002 (ip), vehicle: distilled water + Tween-80 104 % of control | dose: 50.0 mg/kg/injection, schedule: Q04DX002 (ip), vehicle: distilled water + Tween-80 111 % of control

CCOc1cc2c(cc1C(C)(C)c1ccc(OC)cc1)OCO2
inactive: [10] 98 % of control | [11] 109 % of control and 113 % of control | [12] 123 % of control

CC(C)(C)c1cc(C/C=C/c2ccccc2)c(O)c(C(C)(C)C)c1
inactive: dose: 2.5 mg/kg/injection, schedule: Q01DX009 (ip), vehicle: saline with Tween-80 90 % of control | dose: 5.0 mg/kg/injection, schedule: Q01DX009 (ip), vehicle: saline with Tween-80 99 % of control | dose: 10.0 mg/kg/injection, schedule: Q01DX009 (ip), vehicle: saline with Tween-80 96 % of control

CN(C)c1ccc([N+]([O-])=Nc2ccc3ccccc3c2)cc1
inactive: dose: 30.0 mg/kg/injection, schedule: Q01DX005 (ip), vehicle: saline with Tween-80 96 % of control | [10] 87 % of control and 96 % of control | [11] 89 % of control | [12] 90 % of control

COC(=O)/C(=C\C=C\c1ccccc1)NC(=O)c1ccccc1
inactive: dose: 100.0 mg/kg/injection, schedule: Q01DX001 (ip), vehicle: saline with Tween-80 100 % of control | dose: 200.0 mg/kg/injection, schedule: Q01DX001 (ip), vehicle: saline with Tween-80 96 % of control | dose: 400.0 mg/kg/injection, schedule: Q01DX001 (ip), vehicle: saline with Tween-80 89 % of control

O=c1[nH]c(=S)cnn1C1OC(CO)C(O)C1O (configuration not stated)
inactive: dose: 50.0 mg/kg/injection, schedule: Q01DX009 (ip), vehicle: saline 106 % of control | dose: 100.0 mg/kg/injection, schedule: Q01DX009 (ip), vehicle: saline 94 % of control | dose: 200.0 mg/kg/injection, schedule: Q01DX009 (ip), vehicle: saline 101 % of control

O=C(NC1CCCCC1)O/N=C/c1ccc2c(c1)OCO2
inactive: [3] 93 % of control | [4] 86 % of control | [5] 86 % of control

CCCCCCCOC(=O)c1ccc(O)cc1
inactive: [1] 105 % of control | [2] 100 % of control | [3] 99 % of control and 96 % of control | [4] 95 % of control

CC(C)(O)c1ccccc1Br
inactive: dose: 50.0 mg/kg/injection, schedule: Q01DX009 (ip), vehicle: Klucel (hydroxypropylcellulose) (HPC) 98 % of control | dose: 100.0 mg/kg/injection, schedule: Q01DX009 (ip), vehicle: Klucel (hydroxypropylcellulose) (HPC) 99 % of control | dose: 200.0 mg/kg/injection, schedule: Q01DX009 (ip), vehicle: Klucel (hydroxypropylcellulose) (HPC) 102 % of control

CNC(=O)OCc1c(-c2ccccc2)c(-c2ccccc2)n(-c2ccccc2)c1COC(=O)NC
active: [9] 155 % of control | dose: 200.0 mg/kg/injection, schedule: Q01DX009 (ip), vehicle: distilled water + Tween-80 171 % of control and 175 % of control
inactive: [7] 110 % of control | [8] 112 % of control and 117 % of control
